These results are taken from US10556896B2, “Crystalline forms of (3-Amino-oxetan-3-ylmethyl)-[2-(5,5-dioxo-5,6,7,9-tetrahydro-5lambda*6*-thia-8-aza-benzocyclohepten-8-yl)-6-methyl-quinazolin-4-yl]-amine” (Hoffmann-La Roche Inc., priority 2016, dated 2020).

Converted amounts (≈) assume the structure as drawn. Bounds are passed on as bounds.

Common to all, as to type: physicochemical
A short description of data set [1]: Hygroscopicity of crystal forms by dynamic vapour sorption (DVS). The settings on record: for Hygroscopicity, water sorption @80% RH: 25° C.; for Hygroscopicity (result in words): compared with Form D. The procedure: Dynamic vapour sorption (DVS) was tested using a DVS intrinsic from SMS (Surface Measurement Systems Co. Ltd.). 20 mg compound (I) of each crystal form was placed in an aluminium sample pan and recorded the sample weight change under different humidity. The DVS method parameters were set according to Table 16, and the method was run by the machine based on such parameters. [table]

The nature of data set [2]: Equilibrium aqueous solubility in bio-relevant media (SGF, FaSSIF, FeSSIF). The settings on record: for Final pH (FaSSIF) / Final pH (FeSSIF) / Final pH (SGF): after equilibration at 25° C. for 24 hours. The method, then:
Aqueous solubility was determined by suspending 10 mg compound in different bio-relevant media including SGF, FaSSIF and FeSSIF. The suspension was equilibrated at 25° C. for 24 hours then the final pH was measured. The suspension was then filtered through a 0.22 um PVDF filter into a 2-mL HPLC vial. The quantitation was conducted by HPLC (described in Example 10) with reference to a standard solution.

Data set [3] in a line: Chemical stability of crystal forms (storage, HPLC chemical purity). The method, then: HPLC condition is disclosed here in Table 1-1. [table] 40 mg compound (I) of crystal Forms C, E and F were stored in stability chamber with temperature and humidity controlled as 50° C. and 40° C./75% RH respectively, 40 mg compound (I) of Form B was stored at 105° C. oven. After each time point, the samples were analyzed by HPLC to check their chemical purity and compared with their initial value.

On to `Cc1ccc2nc(N3CCS(=O)(=O)c4ccccc4C3)nc(NCC3(N)COC3)c2c1` [Example 1, Form A of compound (I), (3-Amino-oxetan-3-ylmethyl)-[2-(5,5-dioxo-5,6,7,9-tetrahydro-5lambda*6*-thia-8-aza-benzocyclohepten-8-yl)-6-methyl-quinazolin-4-yl]-amine], for which, in data set [1], the “Hygroscopicity, water sorption @80% RH” value stood at 0.25% water sorption @80% RH and the “Hygroscopicity (result in words)” value is reported as “much improved hygroscopicity than Form D”. In addition, in data set [2] (25° C., 24 hours), the “S, mg/mL (FaSSIF)” value was found to be 0.12 mg/mL and the “S, mg/mL (SGF)” value is 2.40 mg/mL. For the same compound, in data set [2], the “Final pH (FaSSIF)” value is 6.60 and the “Final pH (SGF)” value came out at 4.80. For the same compound, in data set [2] (FeSSIF, 25° C., 24 hours), the “S, mg/mL (FeSSIF)” value was 1.72 mg/mL. Also, the “Final pH (FeSSIF)” value in data set [2] (FeSSIF) is 5.31.
Turning to `Cc1ccc2nc(N3CCS(=O)(=O)c4ccccc4C3)nc(NCC3(N)COC3)c2c1` [Example 2, Form B of compound (I), (3-Amino-oxetan-3-ylmethyl)-[2-(5,5-dioxo-5,6,7,9-tetrahydro-5lambda*6*-thia-8-aza-benzocyclohepten-8-yl)-6-methyl-quinazolin-4-yl]-amine], the “Chemical Purity, %” value in data set [3] (105° C., 24 hr) is reported as 99.80%; in data set [3] (Initial), 99.81%.
Take `Cc1ccc2nc(N3CCS(=O)(=O)c4ccccc4C3)nc(NCC3(N)COC3)c2c1` [Example 3, Form C of compound (I), (3-Amino-oxetan-3-ylmethyl)-[2-(5,5-dioxo-5,6,7,9-tetrahydro-5lambda*6*-thia-8-aza-benzocyclohepten-8-yl)-6-methyl-quinazolin-4-yl]-amine]: in data set [1], the “Hygroscopicity, water sorption @80% RH” value amounted to 0.04% water sorption @80% RH and the “Hygroscopicity (result in words)” value was “much improved hygroscopicity than Form D”. In addition, the “Chemical Purity, %” value in data set [3] (40° C./75% RH, 1 month) was 99.28%. The “Chemical Purity, %” value in data set [3] (50° C., 1 month) amounted to 99.32%. In addition, in data set [3] (Initial), the “Chemical Purity, %” value was 99.30%. Besides, in data set [2] (25° C., 24 hours), the “S, mg/mL (FaSSIF)” value is on record as 0.11 mg/mL and the “S, mg/mL (SGF)” value came to 3.81 mg/mL. For the same compound, in data set [2], the “Final pH (FaSSIF)” value turned out to be 6.63 and the “Final pH (SGF)” value is listed as 4.92. Further, the “S, mg/mL (FeSSIF)” value in data set [2] (FeSSIF, 25° C., 24 hours) was 1.88 mg/mL. Moreover, the “Final pH (FeSSIF)” value in data set [2] (FeSSIF) is 5.26.
Consider `Cc1ccc2nc(N3CCS(=O)(=O)c4ccccc4C3)nc(NCC3(N)COC3)c2c1` [Example 4, Form D of compound (I), (3-Amino-oxetan-3-ylmethyl)-[2-(5,5-dioxo-5,6,7,9-tetrahydro-5lambda*6*-thia-8-aza-benzocyclohepten-8-yl)-6-methyl-quinazolin-4-yl]-amine], for which, in data set [1], the “Hygroscopicity, water sorption @80% RH” value came out at 7.52% water sorption @80% RH and the “Hygroscopicity (result in words)” value is on record as “not suitable for further drug development”.
As for `Cc1ccc2nc(N3CCS(=O)(=O)c4ccccc4C3)nc(NCC3(N)COC3)c2c1` [Example 5, Form E of compound (I), (3-Amino-oxetan-3-ylmethyl)-[2-(5,5-dioxo-5,6,7,9-tetrahydro-5lambda*6*-thia-8-aza-benzocyclohepten-8-yl)-6-methyl-quinazolin-4-yl]-amine], in data set [1], the “Hygroscopicity, water sorption @80% RH” value amounted to 1.12% water sorption @80% RH and the “Hygroscopicity (result in words)” value is “much improved hygroscopicity than Form D”. Also, the “Chemical Purity, %” value in data set [3] (40° C./75% RH, 1 month) was determined as 99.14%. Besides, the “Chemical Purity, %” value in data set [3] (50° C., 1 month) turned out to be 99.45%. The “Chemical Purity, %” value in data set [3] (Initial) is recorded as 99.49%. In data set [2] (25° C., 24 hours), the “S, mg/mL (FaSSIF)” value is 0.90 mg/mL and the “S, mg/mL (SGF)” value was above 5 mg/mL. For the same compound, in data set [2], the “Final pH (FaSSIF)” value is recorded as 5.31 and the “Final pH (SGF)” value was 4.69. Moreover, in data set [2] (FeSSIF, 25 °C, fessif, thermodynamic from solid, FeSSIF, 25° C., 24 hours, read-out: S, mg/mL (FeSSIF)), the solubility thermodynamic at 24 h came to 2.18 mg/mL (≈ 4.96 mM). Further, the “Final pH (FeSSIF)” value in data set [2] (FeSSIF) turned out to be 5.34.
Turning to `Cc1ccc2nc(N3CCS(=O)(=O)c4ccccc4C3)nc(NCC3(N)COC3)c2c1` [Example 6, Form F of compound (I), (3-Amino-oxetan-3-ylmethyl)-[2-(5,5-dioxo-5,6,7,9-tetrahydro-5lambda*6*-thia-8-aza-benzocyclohepten-8-yl)-6-methyl-quinazolin-4-yl]-amine], in data set [1], the “Hygroscopicity, water sorption @80% RH” value was 0.50% water sorption @80% RH and the “Hygroscopicity (result in words)” value is listed as “much improved hygroscopicity than Form D”. The “Chemical Purity, %” value in data set [3] (40° C./75% RH, 1 month) is listed as 99.42%. In data set [3] (50° C., 1 month), the “Chemical Purity, %” value came to 99.43%. For the same compound, the “Chemical Purity, %” value in data set [3] (Initial) is reported as 99.62%. Also, the “S, mg/mL (FaSSIF)” value in data set [2] (25° C., 24 hours) is 1.58 mg/mL. For the same compound, in data set [2], the “Final pH (FaSSIF)” value was determined as 4.99 and the “Final pH (SGF)” value amounted to 3.15. The “S, mg/mL (FeSSIF)” value in data set [2] (FeSSIF, 25° C., 24 hours) is 1.99 mg/mL. Besides, the “Final pH (FeSSIF)” value in data set [2] (FeSSIF) was determined as 5.18.
